What was measured:
[1] = system: rabbit serum obtained by immunizing a rabbit with the SARS-CoV strain Frankfurt 1; format: binding; set-up: Binding of a rabbit serum to linear peptides / Binding of a rabbit serum to looped peptides / Rabbit serum linear peptides / Rabbit serum looped peptides / Binding of a rabbit serum to linear peptides of protein N of SARS-CoV Urbani (Rabbit serum linear peptides) / Binding of a rabbit serum to looped/cyclic peptides of protein N of SARS-CoV Urbani (Rabbit serum looped peptides): unit not given here
[2] = system: control sera (pooled serum of ten healthy LUMC hospital workers; commercial negative donor pooled serum from the Dutch bloodbank); format: binding, human; set-up: Binding of Control serum LUMC to linear peptides / Binding of Control serum Blood-bank to linear peptides / Binding of Control serum LUMC to looped peptides / Binding of Control Serum Blood-Bank to Looped peptides / Binding of Control serum LUMC to linear peptides of the protein M of SARS-CoV Urbani / Binding of Control serum Blood-bank to linear peptides of the protein M of SARS-CoV Urbani / Binding of Control serum LUMC to looped peptides of the protein M of SARS-CoV Urbani / Binding of Control Serum Blood-Bank to Looped peptides of the protein M of SARS-CoV Urbani: unit not given here
[3] = system: antibodies in sera from SARS patients (sera 1a, 1b, 2, 6, 37, 62, London, SARS-yellow, SARS-green); format: binding, human; set-up: Binding of serum 6 to linear peptides of protein X1 of SARS-CoV Urbani / Binding of serum 37 to linear peptides of protein X1 of SARS-CoV Urbani / Binding of serum 6 to looped/cyclic peptide (PEPSCAN-ELISA) / Binding of serum 37 to looped/cyclic peptide (PEPSCAN-ELISA) / Binding of serum 37 to looped/cyclic peptides of protein X1 of SARS-CoV Urbani / Binding of serum 6 to linear peptides of protein X2 / Binding of serum 37 to linear peptides of protein X2 / Binding of serum 37 to looped/cyclic peptides of protein X2 of SARS-CoV Urbani / Binding of serum 6 to linear peptides of protein M of SARS-CoV Urbani / Binding of serum 37 to linear peptides of protein M of SARS-CoV Urbani / Binding of serum 6 to looped/cyclic peptides of protein M of SARS-CoV Urbani / Binding of serum 37 to looped/cyclic peptides of protein M of SARS-CoV Urbani / Binding of serum 6 to linear peptides of protein X3 of SARS-CoV Urbani / Binding of serum 37 to linear peptides of protein X3 of SARS-CoV Urbani / Binding of serum 37 to looped/cyclic peptides of protein X3 of SARS-CoV Urbani / Binding of serum 6 to linear peptides of protein X4 of SARS-CoV Urbani / Binding of serum 37 to linear peptides of protein X4 of SARS-CoV Urbani / Binding of serum 37 to looped/cyclic peptides of protein X4 of SARS-CoV Urbani / Binding of serum 6 to linear peptides of protein X5 of SARS-CoV Urbani / Binding of serum 37 to linear peptides of protein X5 of SARS-CoV Urbani / Binding of serum 37 to looped/cyclic peptides of protein X5 of SARS-CoV Urbani / Binding of serum 6 to linear peptides of protein N of SARS-CoV Urbani / Binding of serum 37 to linear peptides of protein N of SARS-CoV Urbani / Binding of serum 6 to linear peptide (PEPSCAN-ELISA) / Binding of serum 1a to looped/cyclic peptides of protein N of SARS-CoV Urbani / Binding of serum 1b to looped/cyclic peptides of protein N of SARS-CoV Urbani / Binding of serum 2 to looped/cyclic peptides of protein N of SARS-CoV Urbani / Binding of serum 6 to looped/cyclic peptides of protein N of SARS-CoV Urbani / Binding of serum 37 to looped/cyclic peptides of protein N of SARS-CoV Urbani / Binding of serum 62 to looped/cyclic peptides of protein N of SARS-CoV Urbani / Binding of serum London to looped/cyclic peptides of protein N of SARS-CoV Urbani / Binding of serum SARS-green to looped/cyclic peptides of protein N of SARS-CoV Urbani: unit not given here

WLVIGVAFLAVFQSA
Binding of a rabbit serum to linear peptides [1]: 0.5 | Binding of a rabbit serum to looped peptides [1]: 0.5 | Binding of Control Serum Blood-Bank to Looped peptides [2]: 0.5 | Binding of Control serum Blood-bank to linear peptides [2]: 0.6 | Binding of Control serum LUMC to linear peptides [2]: 0.6 | Binding of Control serum LUMC to looped peptides [2]: 0.5 | Binding of serum 1a to linear peptides of protein X1 of SARS-CoV Urbani [3]: 0.6 | Binding of serum 1a to looped/cyclic peptide (PEPSCAN-ELISA) [3]: 0.5 | Binding of serum 1b to linear peptides of protein X1 of SARS-CoV Urbani [3]: 0.5 | Binding of serum 1b to looped/cyclic peptide (PEPSCAN-ELISA) [3]: 0.3 | Binding of serum 2 to linear peptides of protein X1 of SARS-CoV Urbani [3]: 0.5 | Binding of serum 2 to looped/cyclic peptide (PEPSCAN-ELISA) [3]: 0.4 | Binding of serum 6 to linear peptides of protein X1 of SARS-CoV Urbani [3]: 0.4 | Binding of serum 6 to looped/cyclic peptide (PEPSCAN-ELISA) [3]: 0.2 | Binding of serum 37 to linear peptides of protein X1 of SARS-CoV Urbani [3]: 0.7 | Binding of serum 37 to looped/cyclic peptide (PEPSCAN-ELISA) [3]: 0.5 | Binding of serum 62 to linear peptides of protein X1 of SARS-CoV Urbani [3]: 0.6 | Binding of serum 62 to looped/cyclic peptide (PEPSCAN-ELISA) [3]: 0.5 | Binding of serum London to linear peptides of protein X1 of SARS-CoV Urbani [3]: 0.3 | Binding of serum London to looped/cyclic peptide (PEPSCAN-ELISA) [3]: 0.2 | Binding of serum SARS-green to linear peptides of protein X1 of SARS-CoV Urbani [3]: 0.3 | Binding of serum SARS-green to looped/cyclic peptide (PEPSCAN-ELISA) [3]: 0.2 | Binding of serum SARS-yellow to linear peptides of protein X1 of SARS-CoV Urbani [3]: 0.4 | Binding of serum SARS-yellow to looped/cyclic peptide (PEPSCAN-ELISA) [3]: 0.5

WNLVIGFLFLAWIML
Rabbit serum linear peptides [1]: 0.2 | Rabbit serum looped peptides [1]: 0.3 | Binding of Control Serum Blood-Bank to Looped peptides of the protein M of SARS-CoV Urbani [2]: 0.5 | Binding of Control serum Blood-bank to linear peptides of the protein M of SARS-CoV Urbani [2]: 0.6 | Binding of Control serum LUMC to linear peptides of the protein M of SARS-CoV Urbani [2]: 0.6 | Binding of Control serum LUMC to looped peptides of the protein M of SARS-CoV Urbani [2]: 0.7 | Binding of serum 1a to linear peptides of protein M of SARS-CoV Urbani [3]: 0.7 | Binding of serum 1a to looped/cyclic peptides of protein M of SARS-CoV Urbani [3]: 0.6 | Binding of serum 1b to linear peptides of protein M of SARS-CoV Urbani [3]: 0.6 | Binding of serum 1b to looped/cyclic peptides of protein M of SARS-CoV Urbani [3]: 0.5 | Binding of serum 2 to linear peptides of protein M of SARS-CoV Urbani [3]: 0.4 | Binding of serum 2 to looped/cyclic peptides of protein M of SARS-CoV Urbani [3]: 0.6 | Binding of serum 6 to linear peptides of protein M of SARS-CoV Urbani [3]: 0.3 | Binding of serum 6 to looped/cyclic peptides of protein M of SARS-CoV Urbani [3]: 0.4 | Binding of serum 37 to linear peptides of protein M of SARS-CoV Urbani [3]: 0.4 | Binding of serum 37 to looped/cyclic peptides of protein M of SARS-CoV Urbani [3]: 0.6 | Binding of serum 62 to linear peptides of protein M of SARS-CoV Urbani [3]: 0.4 | Binding of serum 62 to looped/cyclic peptides of protein M of SARS-CoV Urbani [3]: 0.6 | Binding of serum London to linear peptides of protein M of SARS-CoV Urbani [3]: 0.3 | Binding of serum London to looped/cyclic peptides of protein M of SARS-CoV Urbani [3]: 0.2 | Binding of serum SARS-green to linear peptides of protein M of SARS-CoV Urbani [3]: 0.4 | Binding of serum SARS-green to looped/cyclic peptides of protein M of SARS-CoV Urbani [3]: 0.3 | Binding of serum SARS-yellow to linear peptides of protein M of SARS-CoV Urbani [3]: 0.2 | Binding of serum SARS-yellow to looped/cyclic peptides of protein M of SARS-CoV Urbani [3]: 0.7
